US8329646B2, “Methods for the treatment of muscle loss” (Nestec S.A., priority 2006, dated 2012)
“Also recorded” adds a separate entry of the source.

Key:
eIF2-α = test: Densitometric analysis of Western blots of phosphorylated eIF2-α in C2C12 myotubes; format: cell-based, murine; conditions: FIG. 2, FIG. 3, agent in combination with PIF, compared to PIF alone or to the control
Description: (§1) In order to determine the efficacy of branched chain amino acids (BCAAs) and other agents in reducing muscle catabolism, murine C2C12 myotubes were exposed to PIF or Angiotensin II in combination with amino acids (including BCAAs), insulin, insulin-like growth factor-1 (IGF-1), and a PKR inhibitor. PIF was extracted and purified from MAC16 tumors as described by Smith et al., Effect of a Cancer Cachectic Factor on Protein Synthesis/Degradation in Murine C2C12 Myoblasts: Modulation by Eicosapentaenoic Acid, Cancer Research, 59:5507-13 (1999), which is hereby incorporated by reference. Protein degradation was determined using the method described by Whitehouse et al., Increased Expression of the Ubiquitin-Proteasome Pathway in Murine Myotubes by Proteolysis-Inducing Factor (PIF) is Associated with Activation of the Transcription Factor NF-κB, British Journal of Cancer, 89:1116-22 (2003), which is also hereby incorporated by reference.
The control sample was incubated only in phosphate buffered saline (PBS).

murine C2C12 myotubes [1] = test: Protein synthesis in C2C12 myotubes exposed to PIF or Angiotensin II; format: cell-based; conditions: for suppression of the inhibition of protein synthesis by PIF and Ang II: in the presence of PIF or Ang II; for reduction of protein synthesis when incubated alone: FIG. 6, FIG. 8, b61, compared to the control
Description: as §1
The measured proteolytic activity of PIF can be more specifically described as ubiquitin-like degradation activity.

murine C2C12 myotubes [2] = test: Protein degradation in C2C12 myotubes exposed to PIF or Angiotensin II; format: cell-based
Method: as §1, with “PIF” for “In order to determine the efficacy of branched chain amino acids (BCAAs) and other agents in reducing muscle catabolism, murine C2C12 myotubes were exposed to PIF or Angiotensin II in combination with amino acids (including BCAAs), insulin, insulin-like growth factor-1 (IGF-1), and a PKR inhibitor. PIF”

CC(C)C[C@H](N)C(=O)O [leucine]
eIF2-α phosphorylation in the presence of PIF (eIF2-α): reduced such phosphorylation to about the level of the control or below

O=C1Nc2ccc3ncsc3c2/C1=C/c1cnc[nH]1 [PKR inhibitor]
protein synthesis levels, PKR inhibitor added to PIF (murine C2C12 myotubes [1]; FIG. 6, in combination with PIF): reversed protein synthesis levels back to about those of the control | protein synthesis levels, PKR inhibitor added to Angiotensin II (murine C2C12 myotubes [1]; FIG. 8, in combination with Angiotensin II): maintained protein synthesis levels at about that of the control | protein degradation levels, PKR inhibitor added to PIF (murine C2C12 myotubes [2]; FIG. 5, in combination with PIF): reversed protein degradation levels back to about those of the control | protein degradation levels, PKR inhibitor added to Angiotensin II (murine C2C12 myotubes [2]; FIG. 7, in combination with Angiotensin II): maintaining protein degradation levels at about that of the control

CC(C)[C@H](N)C(=O)O [valine]
eIF2-α phosphorylation in the presence of PIF (eIF2-α): reduced such phosphorylation to about the level of the control or below

insulin: an anabolic hormone
suppression of the inhibition of protein synthesis by PIF and Ang II (murine C2C12 myotubes [1]): effective in suppressing the inhibition of protein synthesis | eIF2-α phosphorylation in the presence of PIF (eIF2-α): significantly reduced; also recorded: completely attenuated

Angiotensin II (DRVYIHPF; Angiotensin-2; UniProt P01019 25-32, looked up)
reduction of protein synthesis when incubated alone (murine C2C12 myotubes [1]): about 40% | reduction of protein synthesis when incubated alone (murine C2C12 myotubes [1]; listed as Ang II): 40% | increase of protein degradation when incubated alone (murine C2C12 myotubes [2]; FIG. 5, FIG. 7, compared to the control): about 51%

IGF-1: insulin-like growth factor-1
suppression of the inhibition of protein synthesis by PIF and Ang II (murine C2C12 myotubes [1]): effective in suppressing the inhibition of protein synthesis | eIF2-α phosphorylation in the presence of PIF (eIF2-α): significantly reduced | eIF2-α phosphorylation in the presence of PIF (eIF2-α; listed as IGF1): completely attenuated

N=C(N)NCCC[C@H](N)C(=O)O [arginine]
eIF2-α phosphorylation in the presence of PIF (eIF2-α): greater than that of the control

CSCC[C@H](N)C(=O)O [methionine]
eIF2-α phosphorylation in the presence of PIF (eIF2-α): greater than that of the control

CC[C@H](C)[C@H](N)C(=O)O [isoleucine]
eIF2-α phosphorylation in the presence of PIF (eIF2-α): reduced such phosphorylation to about the level of the control or below
